Literature values, collected in patent US20190201417A1, “TOPICAL STEROID THERAPY FOR MUCOSAL AND DERMATOLOGICAL INFLAMMATORY DISEASE” (CINRX PHARMA, LLC, priority 2016, published 2019).
Read-outs that look alike come from different tables or passages of the source.

Experiments:
[1] = rats, nasal application with chitosan glutamate
[2] = sheep, nasal application with chitosan glutamate
[3] = test system: Caco-2 cell monolayers; conditions: coadministration with chitosan glutamate

insulin
blood glucose levels [1]: significant reduction
blood glucose levels [2]: significant reduction

9-desglycinamide-8-arginine vasopressin [DGAVP]
transport of the peptide drug [3]: increased markedly

CCNC(=O)[C@@H]1CCCN1C(=O)[C@H](CCCNC(=N)N)NC(=O)[C@H](CC(C)C)NC(=O)[C@@H](COC(C)(C)C)NC(=O)[C@H](Cc1ccc(O)cc1)NC(=O)[C@H](CO)NC(=O)[C@H](Cc1c[nH]c2ccccc12)NC(=O)[C@H](Cc1cnc[nH]1)NC(=O)[C@@H]1CCC(=O)N1 [buserelin]
absolute bioavailability of buserelin (intraduodenal application with chitosan hydrochloride in a gel formulation): 5.1±1.5%
absolute bioavailability of buserelin (intraduodenal application, baseline without chitosan hydrochloride): 0.1±0.1%
